Measurements as given in patent publication US10363257B2 (ZENITH EPIGENETICS LTD., priority 2013, dated 2019).

Experiments:
[1] = test system: hIL-6 mRNA; experiment: Inhibition of hIL-6 mRNA transcription in LPS-stimulated U937 cells; assay type: cell-based; settings: Homo sapiens, U-937; PMA-differentiated U937 cells, 1 h pretreatment, 1 ug/mL LPS stimulation, 3 h; read-out: IL-6 activity (Inhibition of hIL-6 mRNA Transcription)
In short: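 U937 cells differentiated 3 days with 60 ng/mL PMA, pretreated 1 h with compound (0.1% DMSO), then stimulated with 1 ug/mL E. coli LPS for 3 h at 37 °C. hIL-6 mRNA measured by one-step TaqMan RT-qPCR, normalized to cyclophilin. Fold expression relative to control; triplicate wells.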

[2] = In vivo efficacy in experimental autoimmune encephalomyelitis (EAE) model of MS; parameters: species or system mouse; settings: EAE mice (MOG35-55/CFA, female C57Bl/6), 50 to 125 mg/kg b.i.d. from time of immunization
From the text: Experimental autoimmune encephalomyelitis (EAE) is a T-cell-mediated autoimmune disease of the CNS which shares many clinical and histopathological features with human multiple sclerosis (MS). EAE is the most commonly used animal model of MS. […] Cytokines IL-23, IL-6 and IL-17, which are either critical for Th1 and Th17 differentiation or produced by these T cells, play a critical and non-redundant role in EAE development. Therefore, drugs targeting production of these cytokines are likely to have therapeutic potential in treatment of MS.
Compounds of Formula I or la were administered at 50 to 125 mg/kg b.i.d. from time of immunization to EAE mice to assess anti-inflammatory activity. In this model, EAE is induced by MOG35-55/CFA immunization and pertussis toxin injection in female C57BI/6 mice.

[3] = test system: hApoA-1 mRNA; experiment: Up-regulation of hApoA-1 mRNA transcription in Huh7 cells; assay type: cell-based, human; settings: EC170, Huh7 cells, 48 h treatment, ApoA-I mRNA
Experimental: In this example, ApoA-I mRNA in tissue culture cells was quantitated to measure the transcriptional up-regulation of ApoA-I when treated with a compound of the invention.
Huh7 cells (2.5×10^5 per well) were plated in a 96-well plate using 100 μL DMEM per well, (Gibco DMEM supplemented with penicillin/streptomycin and 10% FBS), 24 h before the addition of the compound of interest. After 48 h treatment, the spent media was removed from the Huh-7 cells and placed on ice (for immediate use) or at −80° C. (for future use) with the “LDH cytotoxicity assay Kit II” from Abcam. The cells remaining in the plate were rinsed with 100 μL PBS.
Then 85 μL of cell lysis solution was added to each well and incubated for 5-10 min at room temperature, to allow for complete cell lysis and detachment. mRNA was then prepared using the “mRNA Catcher PLUS plate” from Life Technologies, according to the protocol supplied. After the last wash, as much wash buffer as possible was aspirated without allowing the wells to dry. […]
The eluted mRNA isolated was then used in a one-step real-time PCR reaction, using components of the Ultra Sense Kit together with Life Technologies primer-probe mixes. Real-time PCR data was analyzed, using the Ct values, to determine the fold induction of each unknown sample, relative to the control (that is, relative to the control for each independent DMSO concentration).

Cc1noc(C)c1-c1cc(N)c2ncn(Cc3ccccc3)c2c1 [Example Compound 7, 1-Benzyl-6-(3,5-dimethylisoxazol-4-yl)-1H-benzo[d]imidazol-4-amine]
IC50 [1]: ≤ 300 nM
In vivo activity [2]: Active
ApoA-1 activity [3]: +++ (EC170 value less than or equal to 0.3 μM were deemed to be highly active (+++))
